Assay results: US20150011423A1, “MEANS AND METHODS FOR ASSESSING KIDNEY TOXICITY” (BASF SE, priority 2011, published 2015)
Like-named read-outs stand apart in the source and are kept apart here. Marks after values point to notes of the source that are not given here.

Legend:
[1] = tested on: rats; details: rat, in vivo
Description: (§1) A group of each 5 male and female rats was dosed once daily with the indicated compounds (see Table 9, below for compounds, applied doses and administration details) over 28 days.
(§2) Each dose group in the studies consisted of five rats per sex. Additional groups of each 5 male and female animals served as controls. Before starting the treatment period, animals, which were 62-64 days old when supplied, were acclimatized to the housing and environmental conditions for 7 days. All animals of the animal population were kept under the same constant temperature (20-24±3° C.) and the same constant humidity (30-70%). The animals of the animal population were fed ad libitum. The food to be used was essentially free of chemical or microbial contaminants. Drinking water was also offered ad libitum. […] The illumination period was 12 hours light followed by 12 hours darkness (12 hours light, from 6:00 to 18:00, and 12 hours darkness, from 18:00 to 6:00). […] The test substances (compounds in Table 9 were dosed and administered as described in the table above.
(§3) In the morning of day 7, 14, and 28, blood was taken from the retroorbital venous plexus from fasted anaesthetized animals. From each animal, 1 ml of blood was collected with EDTA as anticoagulant. The samples were centrifuged for generation of plasma. All plasma samples were covered with a N2 atmosphere and then stored at −80° C. until analysis.
(§4) For mass spectrometry-based metabolite profiling analyses plasma samples were extracted and a polar and a non-polar (lipid) fraction was obtained. For GC-MS analysis, the non-polar fraction was treated with methanol under acidic conditions to yield the fatty acid methyl esters. Both fractions were further derivatised with O-methyl-hydroxyamine hydrochloride and pyridine to convert Oxo-groups to O-methyloximes and subsequently with a silylating agent before analysis. In LC-MS analysis, both fractions were reconstituted in appropriate solvent mixtures. HPLC was performed by gradient elution on reversed phase separation columns.
(§5) Steroids and their metabolites were measured by online SPE-LC-MS (Solid phase extraction-LC-MS).
(§6) Following comprehensive analytical validation steps, the data for each analyte were normalized against data from pool samples. These samples were run in parallel through the whole process to account for process variability. The significance of treatment group values specific for sex, treatment duration and metabolite was determined by comparing means of the treated groups to the means of the respective untreated control groups using WELCH-test and quantified with treatment ratios versus control and p-values.

[2] = tested on: rats; experiment: 28-day repeated dose study in rats with mass spectrometry-based plasma metabolite profiling (GC-MS, LC-MS, SPE-LC-MS); treatment ratios versus control; details: plasma; for Threonine, treatment ratio versus control / Ceramide (d18:1, C24:0), treatment ratio versus control / Choline plasmalogen No 03, treatment ratio versus control / Sphingomyelin (d18:2, C16:0), treatment ratio versus control / Choline plasmalogen No 02, treatment ratio versus control / Ceramide (d18:1, C24:1), treatment ratio versus control: Table 1c diuretic effect
Description: as §1, §2, §3, §4, §5, §6

[3] = male rats, day 7, high dose, Table 6b ACE inhibitor induced like toxicity
[4] = male rats, day 7, high dose, Table 1d diuretic effect
[5] = male rats, day 14, high dose, Table 6b ACE inhibitor induced like toxicity
[6] = male rats, day 14, high dose, Table 1d diuretic effect
[7] = male rats, day 28, high dose, Table 6b ACE inhibitor induced like toxicity
[8] = male rats, day 28, high dose, Table 1d diuretic effect
[9] = female rats, day 14, high dose, Table 2a glomerular-tubular defect
[10] = female rats, day 14, high dose, Table 2b glomerular-tubular defect
[11] = female rats, day 28, high dose, Table 2a glomerular-tubular defect
[12] = female rats, day 28, high dose, Table 2b glomerular-tubular defect
[13] = male rats, day 7, high dose, Table 2d glomerular-tubular defect
[14] = male rats, day 14, high dose, Table 2c glomerular-tubular defect
[15] = male rats, day 14, high dose, Table 2d glomerular-tubular defect
[16] = male rats, day 28, high dose, Table 2c glomerular-tubular defect
[17] = male rats, day 28, high dose, Table 2d glomerular-tubular defect
[18] = female rats, day 28, high dose, Table 1a diuretic effect
[19] = female rats, day 28, high dose, Table 1b diuretic effect
[20] = female rats, day 28, high dose, Table 5a tubular necrosis
[21] = female rats, day 28, high dose, Table 5b tubular necrosis

SMILES: NCCCC[C@H](N[C@@H](CCc1ccccc1)C(=O)O)C(=O)N1CCC[C@H]1C(=O)O [Lisinopril]
- 1,5-Anhydrosorbitol, treatment ratio versus control [1]: 1.22 *
- Threonine, treatment ratio versus control ([2]; male rats, day 7, high dose): 0.99^
- Lysine, treatment ratio versus control ([2]; male rats, day 7, high dose, Table 6a ACE inhibitor induced like toxicity): 0.92^
- Cytosine, treatment ratio versus control [2, 3]: 0.97^
- Glutamate, treatment ratio versus control [2, 3]: 0.94 *
- Glutamate, treatment ratio versus control [2, 4]: 0.94 *
- Lysophosphatidylcholine (C20:4), treatment ratio versus control [2, 4]: 0.97^
- Malate, treatment ratio versus control [2, 4]: 0.75 *
- Ceramide (d18:1, C24:0), treatment ratio versus control ([2]; male rats, day 14, high dose): 1.19 *
- Choline plasmalogen No 03, treatment ratio versus control ([2]; male rats, day 14, high dose): 1.1 *
- Sphingomyelin (d18:2, C16:0), treatment ratio versus control ([2]; male rats, day 14, high dose): 1.38 *
- 1,5-Anhydrosorbitol, treatment ratio versus control ([2]; male rats, day 14, high dose, Table 6a ACE inhibitor induced like toxicity): 1.2 *
- Cytosine, treatment ratio versus control [2, 5]: 0.89 *
- Glutamate, treatment ratio versus control [2, 5]: 0.85 *
- Glutamate, treatment ratio versus control [2, 6]: 0.85 *
- Lysophosphatidylcholine (C20:4), treatment ratio versus control [2, 6]: 0.94^
- Malate, treatment ratio versus control [2, 6]: 0.6 *
- 1,5-Anhydrosorbitol, treatment ratio versus control ([2]; male rats, day 28, high dose, Table 6a ACE inhibitor induced like toxicity): 1.53 *
- Cytosine, treatment ratio versus control [2, 7]: 1
- Glutamate, treatment ratio versus control [2, 7]: 0.87 *
- Glutamate, treatment ratio versus control [2, 8]: 0.87 *
- Lysophosphatidylcholine (C20:4), treatment ratio versus control [2, 8]: 0.9 *
- Malate, treatment ratio versus control [2, 8]: 0.65 *

SMILES: CC(C)(S)[C@@H](N)C(=O)O [Penicillamine]
- 3-Indoxylsulfate, treatment ratio versus control [1]: 1.41 *
- Adrenaline (Epinephrine), treatment ratio versus control [1]: 1.14^
- Histamine, treatment ratio versus control [1]: 1.36^
- Threonic acid, treatment ratio versus control [1]: 1.47 *
- 3-Hydroxyindole, treatment ratio versus control [2, 9]: 0.87^
- 3-Indoxylsulfate, treatment ratio versus control [2, 9]: 0.93^
- Creatinine, treatment ratio versus control [2, 9]: 1.69 *
- Elaidic acid (C18:trans[9]1), treatment ratio versus control [2, 9]: 1.2
- Adrenaline (Epinephrine), treatment ratio versus control [2, 10]: 0.55 *
- Glucosamine, treatment ratio versus control [2, 10]: 0.75^
- Mannosamine, treatment ratio versus control [2, 10]: 0.64 *
- 3-Hydroxyindole, treatment ratio versus control [2, 11]: 1.53 *
- Elaidic acid (C18:trans[9]1), treatment ratio versus control [2, 11]: 1.35 *
- Glucosamine, treatment ratio versus control [2, 12]: 0.48 *
- Histamine, treatment ratio versus control [2, 12]: 0.52 *
- Mannosamine, treatment ratio versus control [2, 12]: 0.5 *
- 4-Hydroxy-3-methoxyphenylglycol (HMPG), treatment ratio versus control [2, 13]: 0.91 *
- Cysteine, treatment ratio versus control [2, 13]: 0.46 *
- Isopalmitic acid (C16:0), treatment ratio versus control [2, 13]: 0.75 *
- Metanephrine, treatment ratio versus control [2, 13]: 0.83 *
- Normetanephrine, treatment ratio versus control [2, 13]: 0.79 *
- Creatine, treatment ratio versus control [2, 14]: 1.35 *
- Creatinine, treatment ratio versus control [2, 14]: 1.8 *
- Threonic acid, treatment ratio versus control [2, 14]: 1.4 *
- 4-Hydroxy-3-methoxyphenylglycol (HMPG), treatment ratio versus control [2, 15]: 0.84 *
- Cysteine, treatment ratio versus control [2, 15]: 0.51 *
- Metanephrine, treatment ratio versus control [2, 15]: 0.43 *
- Normetanephrine, treatment ratio versus control [2, 15]: 0.66 *
- Creatine, treatment ratio versus control [2, 16]: 1.27 *
- Glycerol-3-phosphate, polar fraction, treatment ratio versus control [2, 16]: 1.4 *
- Lysophosphatidylcholine (C18:2), treatment ratio versus control [2, 16]: 1.1
- Threonic acid, treatment ratio versus control [2, 16]: 1.7 *
- 4-Hydroxy-3-methoxyphenylglycol (HMPG), treatment ratio versus control [2, 17]: 0.79 *
- Cysteine, treatment ratio versus control [2, 17]: 0.85 *
- Metanephrine, treatment ratio versus control [2, 17]: 0.68 *
- Normetanephrine, treatment ratio versus control [2, 17]: 0.68 *

SMILES: Cn1cnc2c1c(=O)[nH]c(=O)n2C [Theobromine]
- Ceramide (d18:1, C24:0), treatment ratio versus control [1]: 1.33 *
- Choline plasmalogen No 03, treatment ratio versus control [1]: 1.08 *
- Ceramide (d18:1, C24:0), treatment ratio versus control ([2]; male rats, day 7, high dose): 0.84^
- Choline plasmalogen No 02, treatment ratio versus control ([2]; male rats, day 7, high dose): 1.38 *
- Glutamate, treatment ratio versus control [2, 4]: 0.74 *
- Lysophosphatidylcholine (C20:4), treatment ratio versus control [2, 4]: 0.8 *
- Ceramide (d18:1, C24:0), treatment ratio versus control ([2]; male rats, day 14, high dose): 1.35 *
- Choline plasmalogen No 03, treatment ratio versus control ([2]; male rats, day 14, high dose): 1.1
- Threonine, treatment ratio versus control ([2]; male rats, day 14, high dose): 1.53 *
- Glutamate, treatment ratio versus control [2, 6]: 0.94 *
- Lysophosphatidylcholine (C20:4), treatment ratio versus control [2, 6]: 0.86 *
- Ceramide (d18:1, C24:1), treatment ratio versus control ([2]; male rats, day 28, high dose): 1.52^
- Choline plasmalogen No 03, treatment ratio versus control ([2]; male rats, day 28, high dose): 1.1 *
- Sphingomyelin (d18:2, C16:0), treatment ratio versus control ([2]; male rats, day 28, high dose): 1.9 *
- Glutamate, treatment ratio versus control [2, 8]: 0.87 *
- Lysophosphatidylcholine (C20:4), treatment ratio versus control [2, 8]: 0.8 *

SMILES: Cn1c(=O)c2[nH]cnc2n(C)c1=O [Theophylline]
- Glutamate, treatment ratio versus control [1]: 1.04^
- Glycine, treatment ratio versus control [1]: 1.32 *
- Histidine, treatment ratio versus control [1]: 1.25 *
- Valine, treatment ratio versus control [1]: 1.29 *
- Pantothenic acid, treatment ratio versus control [2, 18]: 1.72 *
- Proline, treatment ratio versus control [2, 18]: 1.57
- Threonic acid, treatment ratio versus control [2, 18]: 1.14
- trans-4-Hydroxyproline, treatment ratio versus control [2, 18]: 1.91 *
- 18-Hydroxy-11-deoxycorticosterone, treatment ratio versus control [2, 19]: 0.5 *
- Creatinine, treatment ratio versus control [2, 19]: 0.8 *
- Hippuric acid, treatment ratio versus control [2, 19]: 0.28 *
- Ceramide (d18:1, C24:0), treatment ratio versus control ([2]; male rats, day 7, high dose): 0.92^
- Ceramide (d18:1, C24:1), treatment ratio versus control ([2]; male rats, day 7, high dose): 0.75^
- Glutamate, treatment ratio versus control [2, 4]: 0.64 *
- Lysophosphatidylcholine (C20:4), treatment ratio versus control [2, 4]: 0.71 *
- Malate, treatment ratio versus control [2, 4]: 0.76 *
- Ceramide (d18:1, C24:0), treatment ratio versus control ([2]; male rats, day 14, high dose): 1.56 *
- Ceramide (d18:1, C24:1), treatment ratio versus control ([2]; male rats, day 14, high dose): 1.94 *
- Lysophosphatidylcholine (C20:4), treatment ratio versus control [2, 6]: 0.87 *
- Malate, treatment ratio versus control [2, 6]: 0.9
- Ceramide (d18:1, C24:0), treatment ratio versus control ([2]; male rats, day 28, high dose): 0.95
- Ceramide (d18:1, C24:1), treatment ratio versus control ([2]; male rats, day 28, high dose): 1.17
- Choline plasmalogen No 02, treatment ratio versus control ([2]; male rats, day 28, high dose): 1
- Choline plasmalogen No 03, treatment ratio versus control ([2]; male rats, day 28, high dose): 1.03
- Glutamate, treatment ratio versus control [2, 8]: 0.74 *
- Lysophosphatidylcholine (C20:4), treatment ratio versus control [2, 8]: 0.81 *
- Malate, treatment ratio versus control [2, 8]: 0.72 *

SMILES: NC[C@H]1O[C@H](O[C@H]2[C@H](O)[C@@H](O[C@H]3O[C@H](CO)[C@@H](O)[C@H](N)[C@H]3O)[C@H](N)C[C@@H]2N)[C@H](N)C[C@@H]1O [Tobramycin s.c., Tobramycin]
- Leucine, treatment ratio versus control [1]: 1.26 *
- Docosahexaenoic acid (C22:cis[4,7,10,13,16,19]6), treatment ratio versus control [2, 20]: 1.05 *
- Docosapentaenoic acid (C22:cis[7,10,13,16,19]5), treatment ratio versus control [2, 20]: 1.56 *
- Eicosanoic acid (C20:0), treatment ratio versus control [2, 20]: 1.05
- Glycerol, lipid fraction, treatment ratio versus control [2, 20]: 1.2 *
- Phosphate (inorganic and organic phosphates), treatment ratio versus control [2, 20]: 1.3 *
- Hippuric acid, treatment ratio versus control [2, 21]: 0.14 *
- Lactate, treatment ratio versus control [2, 21]: 0.64 *
